Assay results reported in PMC8219695 (Nature Communications, 2021).
Values joined by “and” are separate entries in the source; they are usually repeats but may differ in a detail not shown here. Identical values can stand only once.

What was measured:
mice = conditions: previously determined; cited from earlier work
hDOR = hDOR (Homo sapiens, UniProt P41143); assay: CAMYEL BRET antagonism assay at hDOR (inhibition of DPDPE); assay type: cell-based; conditions: for Antagonist activity at the hDOR (raw signal): individual replicates, Supplementary Figure 9A source data
hDOR, sequence (P41143 whole entry): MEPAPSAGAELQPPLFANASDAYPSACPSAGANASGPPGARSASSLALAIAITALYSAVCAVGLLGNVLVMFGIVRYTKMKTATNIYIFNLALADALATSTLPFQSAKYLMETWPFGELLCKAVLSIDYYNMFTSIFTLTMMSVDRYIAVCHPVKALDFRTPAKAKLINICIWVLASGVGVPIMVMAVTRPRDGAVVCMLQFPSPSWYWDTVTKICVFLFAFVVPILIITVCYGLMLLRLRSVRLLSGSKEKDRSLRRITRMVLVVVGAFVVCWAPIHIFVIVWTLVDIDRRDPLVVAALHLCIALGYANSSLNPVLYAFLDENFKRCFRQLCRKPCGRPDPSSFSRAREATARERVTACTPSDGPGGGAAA

rKOR = target: T1, rKOR (Rattus norvegicus, UniProt P34975); assay: CAMYEL BRET antagonism assay at rKOR (inhibition of U-50,488); assay type: cell-based; conditions: inhibition of reference agonist U50,488 (EC80)
T1 construct: expressed in transfected cells
T1 sequence (P34975 whole entry): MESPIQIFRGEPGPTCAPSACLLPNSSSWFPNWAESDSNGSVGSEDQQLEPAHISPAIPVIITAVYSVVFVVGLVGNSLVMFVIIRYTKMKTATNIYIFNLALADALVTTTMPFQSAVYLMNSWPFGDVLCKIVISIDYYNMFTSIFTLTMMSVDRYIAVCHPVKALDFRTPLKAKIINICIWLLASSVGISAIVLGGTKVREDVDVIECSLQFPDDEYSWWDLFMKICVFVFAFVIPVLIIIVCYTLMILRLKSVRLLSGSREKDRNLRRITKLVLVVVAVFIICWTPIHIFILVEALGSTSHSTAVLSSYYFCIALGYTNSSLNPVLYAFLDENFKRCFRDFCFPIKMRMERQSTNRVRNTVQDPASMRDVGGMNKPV

mDOR = target: T2, mDOR (Mus musculus, UniProt P32300); assay: CAMYEL BRET antagonism assay at mDOR (inhibition of DPDPE); assay type: cell-based; conditions: for Antagonist activity at the mDOR (raw signal): individual replicates, Supplementary Figure 9B source data
T2 construct: expressed in transfected cells
T2 sequence (P32300 whole entry): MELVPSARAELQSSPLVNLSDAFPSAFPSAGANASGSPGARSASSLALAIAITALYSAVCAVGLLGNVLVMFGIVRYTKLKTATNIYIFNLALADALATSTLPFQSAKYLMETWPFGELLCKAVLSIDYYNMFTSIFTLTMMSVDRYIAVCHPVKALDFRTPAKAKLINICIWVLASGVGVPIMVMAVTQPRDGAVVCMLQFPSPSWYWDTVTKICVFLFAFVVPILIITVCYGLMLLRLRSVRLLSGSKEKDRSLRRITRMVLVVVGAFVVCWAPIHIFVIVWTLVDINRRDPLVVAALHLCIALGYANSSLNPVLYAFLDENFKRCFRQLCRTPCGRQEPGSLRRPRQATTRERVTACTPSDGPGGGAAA

hKOR = hKOR (Homo sapiens, UniProt P41145); assay: CAMYEL BRET antagonism assay at hKOR (inhibition of U-50,488); assay type: cell-based; conditions: for raw BRET response, antagonist activity at the hKOR (Supplementary Figure 10A): vs EC80 U50,488, replicate raw values
hKOR, sequence (P41145 whole entry): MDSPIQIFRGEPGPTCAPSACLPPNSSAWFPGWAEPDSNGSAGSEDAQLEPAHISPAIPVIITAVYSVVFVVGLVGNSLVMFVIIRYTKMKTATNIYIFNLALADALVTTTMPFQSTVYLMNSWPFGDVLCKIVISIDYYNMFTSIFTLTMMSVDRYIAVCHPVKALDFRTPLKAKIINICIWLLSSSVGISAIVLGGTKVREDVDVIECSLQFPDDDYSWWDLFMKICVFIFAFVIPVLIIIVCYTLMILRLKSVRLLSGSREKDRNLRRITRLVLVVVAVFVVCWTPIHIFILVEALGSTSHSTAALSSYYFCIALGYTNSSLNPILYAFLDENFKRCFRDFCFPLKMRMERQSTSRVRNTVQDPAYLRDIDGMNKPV

WT C57 and MOR KO mice = assay: Tail-flick in wild-type and MOR KO mice; assay type: in vivo, mouse; conditions: individual animals
Protocol: CD1 mice (n = 10), at peak analgesic time point. […] Dose–response curves of 22 (s.c.), in the tail-flick assay was evaluated 15 min post drug administration in WT, C57 mice (n = 8) and MOR KO mice (n = 5). Each point represents mean ± SEM.
To confirm that the low-efficacy analgesia is driven by MOR, and no other targets or mechanisms (e.g., other opioid receptors or non-opioid off-targets), we performed the mouse tail-flick assay in wild-type (WT), and MOR knockout (MOR KO) mice with the same genetic background (Fig. 9e).
For analgesic testing in KO animals, wild-type, male C57BL/6 mice (22–33 g), 10–12 weeks were purchased from the Jackson Lab (Bar Harbor, ME). These mice were kept at a constant temperature of 22 ± 2 °C, and relative humidity was maintained at 40–50%. Exon-1/Exon-11 MOR-1 KO mice on a C57 background were bred in the Pintar laboratory at Rutgers University. All mice were maintained on a 12-hour light/dark cycle with food and water available ad libitum, and housed in groups of five until testing. All testing was done in the light cycle.
Analgesia was tested in wild-type and MOR KO animals by the radiant heat tail-flick technique using an IITC Model 33 Tail Flick Analgesia Meter as previously described. The intensity was set to achieve a baseline between 2 and 3 s. Tail-flick antinociception was assessed as an increase in baseline latency, with a maximal 10 s latency to minimize damage to the tail. Data were analyzed as percent maximal effect, % MPE, which was calculated according to the formula: % MPE [(observed latency − baseline latency)/(maximal latency − baseline latency)] × 100. Compounds were administered s.c. as indicated in the figures, and analgesia was assessed at the peak effect (15 min). Mice were tested for analgesia with cumulative subcutaneous doses of the drug until the mouse can withstand the maximal latency. Once the mouse reached the maximal latency, the mouse was no longer given higher doses. In vivo experiments were evaluated using GraphPad Prism 8, San Diego, CA as described above. […]
dilution series was prepared for the desired doses of 0.1, 0.3, 1, 3, and 10 mg/kg (concentrations 0.01 mg/mL, 0.03 mg/mL, 0.1 mg/mL, 0.3 mg/mL, and 1 mg/mL respectively). Solutions were filtered through a PTFE 0.45μm syringe filter and administered s.c. at a max volume of 300μL.
Tail Flick (Dose – response)
Tail flick antinociception was determined using the radiant heat tail flick technique using an Ugo Basile model 37360 instrument as previously described.21,22 The intensity was set to achieve a baseline between 2 and 3 s. Baseline latencies were determined before experimental treatments for all mice. Tail flick antinociception was assessed as an increase in baseline latency, with a maximal 15 s latency to minimize damage to the tail. Data were analyzed as percent maximal effect, %MPE, and was calculated according to the formula: % MPE = [(observed latency – baseline latency)/(maximal latency – baseline latency)] × 100.
Compounds were injected subcutaneously (s.c.) and antinociception was assessed at the peak effect. Mice were tested for analgesia with cumulative subcutaneous doses of the drug until the mouse can withstand the maximal latency. Once the mouse reached the maximal latency, the mouse was no longer given higher doses. The analgesia experiments were performed by blinding the experimenter to the identity of 7OH versus 11-F-7OH. In vivo experiments were evaluated using GraphPad Prism 8, San Diego, CA as described […]
Analgesia was tested in wild-type and MOR KO animals by the radiant heat tail-flick technique using an IITC Model 33 Tail Flick Analgesia Meter as previously described.23 The intensity was set to achieve a baseline between 2 and 3 s. Tail flick antinociception was assessed as an increase in baseline latency, with a maximal 10 s latency to minimize damage to the tail. Data were analyzed as percent maximal effect, %MPE, which was calculated according to the formula: % MPE [(observed latency − baseline […]

[1] = Log[drug] (M) -5, against EC80 DPDPE
[2] = Log[drug] (M) -6, against EC80 DPDPE
[3] = Log[drug] (M) -7, against EC80 DPDPE
[4] = Log[drug] (M) -8, against EC80 DPDPE
[5] = Log[drug] (M) -9, against EC80 DPDPE
[6] = Log[drug] (M) -10, against EC80 DPDPE
[7] = Log[drug] (M) -11, against EC80 DPDPE
[8] = inhibition of reference agonist DPDPE (EC80)

## CC[C@@H]1CN2CC[C@@]3(O)C(=Nc4cccc(OC)c43)[C@@H]2C[C@@H]1/C(=C\OC)C(=O)OC [7OH, 7-Hydroxymitragynine, reference compound]
mice
  ED50 (95% CI) mouse tail-flick: 0.57 (0.19–1.7) mg/kg

## CC[C@@H]1CN2CC[C@@]3(O)C(=Nc4cc(Br)cc(OC)c43)[C@@H]2C[C@@H]1/C(=C\OC)C(=O)OC [11-Br-7OH (24), 11-Br-7OH]
hDOR; [1]
  Antagonist activity at the hDOR (raw signal): 0.02104 and 0.01573 and 0.009966 and -0.01593 and -0.01928 and -0.02427 and 0.02048 and 0.01948 and 0.01559
hDOR; [2]
  Antagonist activity at the hDOR (raw signal): 0.04515 and 0.04385 and 0.04449 and 0.03157 and 0.04067 and 0.05399 and 0.01786 and 0.03044 and 0.02432
hDOR; [3]
  Antagonist activity at the hDOR (raw signal): 0.1057 and 0.11 and 0.09817 and 0.09774 and 0.0895 and 0.09531 and 0.04711 and 0.02047 and 0.02787
hDOR; [4]
  Antagonist activity at the hDOR (raw signal): 0.1076 and 0.1055 and 0.1083 and 0.107 and 0.1014 and 0.09451 and 0.04651 and 0.03638 and 0.03747
hDOR; [5]
  Antagonist activity at the hDOR (raw signal): 0.1047 and 0.1019 and 0.1172 and 0.09234 and 0.1022 and 0.1004 and 0.02352 and 0.04174 and 0.03714
hDOR; [6]
  Antagonist activity at the hDOR (raw signal): 0.1014 and 0.1021 and 0.1072 and 0.1078 and 0.1042 and 0.1009 and 0.03392 and 0.02253 and 0.04348
hDOR; [7]
  Antagonist activity at the hDOR (raw signal): 0.122 and 0.117 and 0.1095 and 0.09539 and 0.09115 and 0.09894 and 0.04038 and 0.02714 and 0.0351
hDOR; [8]
  antagonism at hDOR: full inhibition
rKOR
  antagonism at rKOR: full inhibition
mDOR; [1]
  Antagonist activity at the mDOR (raw signal): 0.06399 and 0.06291 and 0.07141 and -0.0292 and -0.02688 and -0.02364 and 0.0237 and 0.00593 and 0.00355
mDOR; [2]
  Antagonist activity at the mDOR (raw signal): 0.1505 and 0.1501 and 0.1583 and 0.09131 and 0.07128 and 0.07775 and 0.02237 and 0.03499 and 0.03942
mDOR; [3]
  Antagonist activity at the mDOR (raw signal): 0.2144 and 0.2068 and 0.2165 and 0.1245 and 0.1236 and 0.1249 and 0.06242 and 0.05459 and 0.06232
mDOR; [4]
  Antagonist activity at the mDOR (raw signal): 0.2065 and 0.2182 and 0.2145 and 0.1188 and 0.1346 and 0.1274 and 0.05577 and 0.0581 and 0.03338
mDOR; [5]
  Antagonist activity at the mDOR (raw signal): 0.2158 and 0.2138 and 0.2085 and 0.1371 and 0.1339 and 0.1253 and 0.04145 and 0.04861 and 0.04624
mDOR; [6]
  Antagonist activity at the mDOR (raw signal): 0.2122 and 0.2205 and 0.2303 and 0.1255 and 0.1229 and 0.131 and 0.04756 and 0.04362 and 0.03388
mDOR; [7]
  Antagonist activity at the mDOR (raw signal): 0.208 and 0.2144 and 0.211 and 0.1321 and 0.1264 and 0.1313 and 0.05075 and 0.03733 and 0.04896
mDOR; [8]
  antagonism at mDOR: full inhibition
hKOR; Log[drug] (M) -5
  raw BRET response, antagonist activity at the hKOR (Supplementary Figure 10A): 0.01109 and 0.005199 and -0.00757 and 0.006133 and 0.001515 and 0.001933 and 0.02329 and 0.01475 and 0.01349
hKOR; Log[drug] (M) -6
  raw BRET response, antagonist activity at the hKOR (Supplementary Figure 10A): 0.0143 and 0.01072 and 0.01916 and 0.07074 and 0.07832 and 0.07872 and 0.07001 and 0.07357 and 0.05372
hKOR; Log[drug] (M) -7
  raw BRET response, antagonist activity at the hKOR (Supplementary Figure 10A): 0.06437 and 0.07728 and 0.08334 and 0.1589 and 0.1581 and 0.1664 and 0.1453 and 0.1454 and 0.1482
hKOR; Log[drug] (M) -8
  raw BRET response, antagonist activity at the hKOR (Supplementary Figure 10A): 0.1403 and 0.1362 and 0.1374 and 0.1753 and 0.1713 and 0.1791
hKOR; Log[drug] (M) -9
  raw BRET response, antagonist activity at the hKOR (Supplementary Figure 10A): 0.09403 and 0.08676 and 0.08107 and 0.1704 and 0.1868 and 0.1861 and 0.1635 and 0.1852 and 0.1823
hKOR; Log[drug] (M) -10
  raw BRET response, antagonist activity at the hKOR (Supplementary Figure 10A): 0.09782 and 0.1078 and 0.1073 and 0.1956 and 0.1911 and 0.1936 and 0.176 and 0.1692 and 0.1714
hKOR; Log[drug] (M) -11
  raw BRET response, antagonist activity at the hKOR (Supplementary Figure 10A): 0.1073 and 0.09367 and 0.109 and 0.2072 and 0.1833 and 0.1925 and 0.1707 and 0.1895 and 0.1659
hKOR; inhibition of reference agonist U50,488 (EC80)
  antagonism at hKOR: full inhibition

## CC[C@@H]1CN2CC[C@@]3(O)C(=Nc4cc(F)cc(OC)c43)[C@@H]2C[C@@H]1/C(=C\OC)C(=O)OC [11-F-7OH (22), 11-Fluoro-7-hydroxymitragynine]
WT C57 and MOR KO mice; dose 0.1
  Antinociceptive effect, MOR KO: 40.7407 and 22.4138 and -2.941 and 22.6277 and 21.0084
  Antinociceptive effect, Wild Type: 7.432 and 25.9259 and 5.926 and 9.722 and -11.5108 and 0 and 3.521 and -7.971
WT C57 and MOR KO mice; dose 0.3
  Antinociceptive effect, MOR KO: 14.0741 and 33.6207 and 22.0588 and 13.1387 and 14.2857
  Antinociceptive effect, Wild Type: 22.2973 and 19.2593 and 0 and 16.6667 and -0.7194 and 4.895 and -7.746 and 40.5797
WT C57 and MOR KO mice; dose 1
  Antinociceptive effect, MOR KO: 30.3704 and 1.724 and 19.8529 and 38.6861 and -26.8908
  Antinociceptive effect, Wild Type: 71.6216 and -1.481 and 44.4444 and 10.4167 and 5.036 and 71.3287 and 100 and 14.4927
WT C57 and MOR KO mice; dose 3
  Antinociceptive effect, MOR KO: 30.3704 and -6.897 and 22.0588 and 27.0073 and 1.681
  Antinociceptive effect, Wild Type: 100 (3×) and 5.185 and 43.7037 and 11.1111 and 41.0072 and -2.899
WT C57 and MOR KO mice; dose 10
  Antinociceptive effect, MOR KO: 100 and 18.1034 and -5.882 and 26.2774 and -0.8403
  Antinociceptive effect, Wild Type: 62.1622 and 30.3704 and 25.1852 and 100 (2×) and 12.2302 and 25.1748 and 47.1014
